2 compounds from paper PMC8073005, “Antifungal Activity and DNA Topoisomerase Inhibition of Hydrolysable Tannins from Punica granatum L” (International Journal of Molecular Sciences, 2021) can be followed below.

In general, zone of inhibition refers to the extent of the growth-free halo in a diffusion test. Low readings indicate a weaker effect on the plate, high ones a stronger effect on the plate. In general, IC50 refers to the point on the concentration scale where inhibition reaches its midpoint. Read a low IC50 as greater potency in that assay.

The test system of test [1] is Candida albicans ATCC 10321. As to the kind of experiment: MIC, broth microdilution (human pathogens). To be noted: ATCC10321; Candida albicans ATCC 10321; SDB, 30 °C, 48 h; read-out: Minimum inhibitory concentration (MIC). It is filed as cell-based. Background: In broth dilution the organism is exposed to a series of concentrations in liquid medium.
The test system of another test is Candida albicans SC 5314. Nature of the test: MIC, broth microdilution (human pathogens). The test is classed as cell-based. Particulars: SC5314; Candida albicans SC 5314; SDB, 30 °C, 48 h; read-out: Minimum inhibitory concentration (MIC).
A further test deals with Candida albicans 1. As to the kind of experiment: MIC, broth microdilution (human pathogens). The test is classed as cell-based. To be noted: Candida albicans 1; SDB, 30 °C, 48 h; read-out: Minimum inhibitory concentration (MIC).
The test system of another test is Candida albicans 2. As to the kind of experiment: MIC, broth microdilution (human pathogens). Particulars: Candida albicans 2; SDB, 30 °C, 48 h; read-out: Minimum inhibitory concentration (MIC). It is filed as cell-based.
In the next test the test system is Candida albicans H. As to the kind of experiment: MIC, broth microdilution (human pathogens). It is filed as cell-based. Particulars: Candida albicans H; SDB, 30 °C, 48 h; read-out: Minimum inhibitory concentration (MIC).
In a further test the test system is Candida albicans 40. Nature of the test: MIC, broth microdilution (human pathogens). Particulars: Candida albicans 40; SDB, 30 °C, 48 h; read-out: Minimum inhibitory concentration (MIC). It is filed as cell-based.
For the next test, the system named is Candida albicans 41. As to the kind of experiment: MIC, broth microdilution (human pathogens). The test is classed as cell-based. Particulars: Candida albicans 41; SDB, 30 °C, 48 h; read-out: Minimum inhibitory concentration (MIC).
A further test relates to Candida albicans 44. Nature of the test: MIC, broth microdilution (human pathogens). It is filed as cell-based. To be noted: Candida albicans 44; SDB, 30 °C, 48 h; read-out: Minimum inhibitory concentration (MIC).
The test system of another test is Candida parapsilosis. As to the kind of experiment: MIC, broth microdilution (human pathogens). The test is classed as cell-based. To be noted: Lodderomyces parapsilosis; Candida parapsilosis; SDB, 30 °C, 48 h; read-out: Minimum inhibitory concentration (MIC).
The test system of another test is Candida parapsilosis 7. Nature of the test: MIC, broth microdilution (human pathogens). The test is classed as cell-based. To be noted: Lodderomyces parapsilosis; Candida parapsilosis 7; SDB, 30 °C, 48 h; read-out: Minimum inhibitory concentration (MIC).
In the next test the test system is Candida zeylanoides 33. As to the kind of experiment: MIC, broth microdilution (human pathogens). It is filed as cell-based. Particulars: Dujonia zeylanoides; Candida zeylanoides 33; SDB, 30 °C, 48 h; read-out: Minimum inhibitory concentration (MIC).
For test [2], the system named is Saccharomyces cerevisiae 42. As to the kind of experiment: MIC, broth microdilution (human pathogens). Particulars: Saccharomyces cerevisiae 42; SDB, 30 °C, 48 h; read-out: Minimum inhibitory concentration (MIC). The test is classed as cell-based.
Test [3] has as its system Aspergillus brasiliensis ATCC 16404. As to the kind of experiment: MIC, broth microdilution (human pathogens). To be noted: ATCC16404; Aspergillus brasiliensis ATCC 16404; SDB, 30 °C, 48 h; read-out: Minimum inhibitory concentration (MIC). The test is classed as cell-based.
Another test concerns Aspergillus candidus 3. Nature of the test: MIC, broth microdilution (human pathogens). It is filed as cell-based. To be noted: Aspergillus candidus 3; SDB, 30 °C, 48 h; read-out: Minimum inhibitory concentration (MIC).
A further test concerns Aspergillus candidus 25. Nature of the test: MIC, broth microdilution (human pathogens). To be noted: Aspergillus candidus 25; SDB, 30 °C, 48 h; read-out: Minimum inhibitory concentration (MIC). The test is classed as cell-based.
For test [4], the system named is Cryptococcus neoformans B 3501. Nature of the test: MIC, broth microdilution (human pathogens). To be noted: B3501; Cryptococcus neoformans B 3501; SDB, 30 °C, 48 h; read-out: Minimum inhibitory concentration (MIC). The test is classed as cell-based.
The test system of test [5] is Cryptococcus neoformans ATCC 11240. Nature of the test: MIC, broth microdilution (human pathogens). To be noted: ATCC11240; Cryptococcus neoformans ATCC 11240; SDB, 30 °C, 48 h; read-out: Minimum inhibitory concentration (MIC). The test is classed as cell-based.
A further test concerns Cryptococcus 67. As to the kind of experiment: MIC, broth microdilution (human pathogens). It is filed as cell-based. Particulars: Cryptococcus 67; SDB, 30 °C, 48 h; read-out: Minimum inhibitory concentration (MIC).
Test [6] has as its system Cryptococcus var. grubii H99 serotype A. Nature of the test: MIC, broth microdilution (human pathogens). To be noted: Cryptococcus var. grubii H99 serotype A; SDB, 30 °C, 48 h; read-out: Minimum inhibitory concentration (MIC). It is filed as cell-based.
The test system of the next test is Candida strains. As to the kind of experiment: Agar Disk Diffusion Assay, Candida strains. The test is classed as cell-based.
The target in test [7] is T1, topoisomerase I from Candida albicans (Candida albicans, UniProt Q00313).
T1 sequence (Q00313 1-778): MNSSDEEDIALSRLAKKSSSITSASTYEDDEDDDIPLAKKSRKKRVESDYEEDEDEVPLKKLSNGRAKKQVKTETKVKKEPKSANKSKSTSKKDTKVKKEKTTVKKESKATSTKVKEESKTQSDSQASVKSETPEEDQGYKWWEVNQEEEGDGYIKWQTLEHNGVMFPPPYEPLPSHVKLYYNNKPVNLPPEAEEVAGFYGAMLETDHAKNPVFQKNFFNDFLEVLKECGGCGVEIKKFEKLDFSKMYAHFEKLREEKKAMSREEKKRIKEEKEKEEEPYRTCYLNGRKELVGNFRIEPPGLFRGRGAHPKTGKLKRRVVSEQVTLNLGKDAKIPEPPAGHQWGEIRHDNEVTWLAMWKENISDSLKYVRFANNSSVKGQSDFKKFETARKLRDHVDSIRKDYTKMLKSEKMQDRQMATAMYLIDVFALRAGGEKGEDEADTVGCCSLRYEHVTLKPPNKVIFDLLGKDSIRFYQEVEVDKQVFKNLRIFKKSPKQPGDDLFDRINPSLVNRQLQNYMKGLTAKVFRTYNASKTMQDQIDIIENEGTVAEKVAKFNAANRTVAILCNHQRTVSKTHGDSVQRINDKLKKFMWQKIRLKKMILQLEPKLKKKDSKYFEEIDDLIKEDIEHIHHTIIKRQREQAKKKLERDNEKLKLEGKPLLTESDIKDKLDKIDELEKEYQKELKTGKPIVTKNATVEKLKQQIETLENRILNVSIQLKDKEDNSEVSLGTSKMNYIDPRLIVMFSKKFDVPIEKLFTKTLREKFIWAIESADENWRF
As to the kind of experiment: Topoisomerase I supercoiled DNA relaxation inhibition. It is filed as biochemical.

Converted amounts (≈) assume the structure as drawn.

Take `C[C@@H]1[C@H](O)[C@@H](C)/C=C/C=C/C=C/C=C/C=C/C=C/C=C/[C@H](O[C@@H]2O[C@H](C)[C@@H](O)[C@H](N)[C@@H]2O)C[C@@H]2O[C@](O)(C[C@@H](O)C[C@@H](O)[C@H](O)CC[C@@H](O)C[C@@H](O)CC(=O)O[C@H]1C)C[C@H](O)[C@H]2C(=O)O` [Amphotericin B, amphotericin B, reference compound]: the MIC in test [1] was 0.1 µM (≈ 0.0924 µg/mL); with Candida albicans SC 5314, 0.1 µM (≈ 0.0924 µg/mL); with Candida albicans 1, 2.2 µM (≈ 2.03 µg/mL); in the test on Candida albicans 2 it was 4.3 µM (≈ 3.97 µg/mL); with Candida albicans H, 4.3 µM (≈ 3.97 µg/mL); in the test on Candida albicans 40 it was 0.3 µM (≈ 0.277 µg/mL). Moreover, the MIC is 0.3 µM (≈ 0.277 µg/mL) in the test with Candida albicans 41; 2.2 µM (≈ 2.03 µg/mL) in the test on Candida albicans 44; 0.1 µM (≈ 0.0924 µg/mL) in the test on Candida parapsilosis; 0.3 µM (≈ 0.277 µg/mL) with Candida parapsilosis 7; 0.1 µM (≈ 0.0924 µg/mL) with Candida zeylanoides 33; 1.1 µM (≈ 1.02 µg/mL) in [2]. In addition, the MIC in test [3] is 0.1 µM (≈ 0.0924 µg/mL); in the test on Aspergillus candidus 3, 0.3 µM (≈ 0.277 µg/mL); in the test with Aspergillus candidus 25 it was 0.3 µM (≈ 0.277 µg/mL); in [4], 0.1 µM (≈ 0.0924 µg/mL); in test [5] it was 0.1 µM (≈ 0.0924 µg/mL); in the test on Cryptococcus 67 it was 0.1 µM (≈ 0.0924 µg/mL). For the same compound, in [6], the MIC came to 0.1 µM (≈ 0.0924 µg/mL). Moreover, in the test on Candida strains (25 μg), the “share of Candida strains with inhibition zone from 21 to 30 mm” value came out at 46%. Besides, the zone of inhibition at 25 µg/disc in the test with Candida strains (25 µg, positive controls, for the stated share of Candida strains) is 21 to 30 mm.

Take `CC[C@@]1(O)C(=O)OCc2c1cc1n(c2=O)Cc2cc3ccccc3nc2-1` [Camptothecin, camptothecin, reference compound]: the IC50 in [7] is 17.8 ± 0.7 µM.
